# Laboratory results taken from patent US8557796B2, “Substituted 1-oxa-2,8-diaza-spiro [4,5] dec-2-ene derivatives and related treatment methods” (Gruenenthal GmbH, priority 2001, dated 2013).
# Molecular target: T1, 5HT-uptake (Rattus norvegicus, UniProt P31652)
# T1 construct: synaptosomes from rat brain regions were freshly isolated; from tissue; host or cells: P2 synaptosome fraction from rat brain regions
# Experiment: Serotonin uptake inhibition (5HT uptake) in synaptosomes
# Format: biochemical
# Details: rat brain synaptosomes
# Excerpt: Tests on Serotonin Uptake (5HT Uptake Inhibition)
# T1 sequence (P31652 whole entry): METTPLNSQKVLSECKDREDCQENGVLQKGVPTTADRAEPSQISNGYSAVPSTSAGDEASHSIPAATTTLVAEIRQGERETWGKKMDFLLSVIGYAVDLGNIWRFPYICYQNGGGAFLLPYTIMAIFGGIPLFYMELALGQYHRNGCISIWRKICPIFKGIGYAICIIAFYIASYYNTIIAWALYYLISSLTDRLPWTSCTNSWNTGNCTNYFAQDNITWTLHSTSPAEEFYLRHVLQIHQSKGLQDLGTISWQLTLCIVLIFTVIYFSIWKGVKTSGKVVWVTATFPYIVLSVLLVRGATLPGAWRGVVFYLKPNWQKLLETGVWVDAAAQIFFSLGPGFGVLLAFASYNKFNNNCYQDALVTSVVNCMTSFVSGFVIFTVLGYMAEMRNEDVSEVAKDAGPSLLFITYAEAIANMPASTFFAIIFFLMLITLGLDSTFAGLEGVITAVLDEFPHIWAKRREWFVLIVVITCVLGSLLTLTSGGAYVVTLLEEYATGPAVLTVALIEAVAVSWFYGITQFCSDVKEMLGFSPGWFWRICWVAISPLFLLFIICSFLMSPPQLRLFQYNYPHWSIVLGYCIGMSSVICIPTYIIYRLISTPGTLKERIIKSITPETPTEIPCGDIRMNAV
SMILES,"5HT-uptake, 10 μM, % inhibition [%]",inhibition at 10 µM [%]
"O=C(C1=NOC2(CCN(S(=O)(=O)c3cccs3)CC2)C1)N1CCN(C2CCCCCC2)CC1 [Example 3, (4-cycloheptyl-piperazin-l-yl)-[8-(thiophene-2-sulphonyl)-1-oxa-2,8-diaza-spiro [4,5]dec-2-en-3-yl]-methanone]",51,
"O=C(C1=NOC2(CCN(S(=O)(=O)c3ccc(Cl)s3)CC2)C1)N1CCN(c2ccccc2)CC1 [Example 4, [8-(5-chloro-thiophene-2-sulphonyl)-1-oxa-2,8-diaza-spiro[4,5]dec-2-en-3-yl]-(4-phenyl-piperazin-1-yl)-methanone]",,54
"O=C(NC1CCCC1)C1=NOC2(CCN(C(=O)c3ccc([N+](=O)[O-])cc3Cl)CC2)C1 [Example 5, 8-(2-chloro-4-nitro-benzoyl)-1-oxa-2,8-diaza-spiro[4,5]dec-2-ene-3-carboxylic acid cyclopentylamide]",,59
Cc1ccc(S(=O)(=O)N2CCC3(CC2)CC(C(=O)NCCc2ccc(Cl)c(Cl)c2)=NO3)cc1 [Example 9],75,
"O=C(C1=NOC2(CCN(S(=O)(=O)c3cccs3)CC2)C1)N1CCN(CCCc2ccccc2)CC1 [Example 14, [4-(3-phenyl-propyl)-piperazin-l-yl]-[8-(thiophene-2-sulphonyl)-1-oxa-2,8-diaza-spiro[4,5]dec-2-en-3-yl]-methanone]",78,
"CC1CCCCN1CCCNC(=O)C1=NOC2(CCN(S(=O)(=O)c3cc(Cl)ccc3Cl)CC2)C1 (stereo not drawn) [Example 15, 8-(2,5-dichloro-benzenesulphonyl)-1-oxa-2,8-diaza-spiro[4,5]dec-2-ene-3-carboxylic acid[3-(2-methyl-piperidin-1-yl)-propyl]-amide]",55,
"Cc1cccc(N2CCN(C(=O)C3=NOC4(CCN(S(=O)(=O)c5cccs5)CC4)C3)CC2C)c1 (stereo not drawn) [Example 31, (3-methyl-4-m-tolyl-piperazin-l-yl)-[8-(thiophene-2-sulphonyl)-1-oxa-2,8-diaza-spiro[4,5]dec-2-en-3-yl]-methanone]",69,
"CCCC(=O)N1CCC2(CC1)CC(C(=O)NC1CCN(C(=O)OCC)CC1)=NO2 [Example 74, 4-[(8-butyryl-1-oxa-2,8-diaza-spiro[4,5]dec-2-ene-3-carbonyl)-amino]-piperidine-l-carboxylic acid ethyl ester]",43,
"Cc1cnc(C(=O)N2CCN(C(=O)C3=NOC4(CCN(S(=O)(=O)c5ccc(F)cc5)CC4)C3)CC2)cn1 [Example 76, [8-(4-fluoro-benzenesulphonyl)-1-oxa-2,8-diaza-spiro[4,5]dec-2-ene-3-yl]-[4-(5-methyl-pyrazine-2-carbonyl)-piperazin-1-yl]-methanone]",,42
"CN(C)S(=O)(=O)N1CCC2(CC1)CC(C(=O)NCc1ccc(F)cc1F)=NO2 [Example 77, 8-dimethylsulphamoyl-1-oxa-2,8-diaza-spiro[4,5]dec-2-ene-3-carboxylic acid 2,4-difluorobenzylamide]",,41
"CCOC(=O)CCNC(=O)C1=NOC2(CCN(C(=O)c3cc(F)cc(F)c3)CC2)C1 [Example 81, 3-{[8-(3,5-difluoro-benzoyl)-1-oxa-2,8-diaza-spiro[4,5]dec-2-ene-3-carbonyl]-amino}-propionic acid ethyl ester]",,46
"CCCS(=O)(=O)N1CCC2(CC1)CC(C(=O)NCC(C)C)=NO2 [Example 82, 8-(propane-1-sulphonyl)-1-oxa-2,8-diaza-spiro[4,5]dec-2-ene-3-carboxylic acid isobutyl-amide]",,42
"O=C(C1=NOC2(CCN(S(=O)(=O)c3cccc(C(F)(F)F)c3)CC2)C1)N1CCN(CCCc2ccccc2)CC1 [Example 83, [4-(3-phenyl-propyl)-piperazin-1-yl]-[8-(3-trifluoromethyl-benzenesulphonyl)-1-oxa-2,8-diaza-spiro[4,5]dec-2-en-3-yl]-methanone]",,52
"CCCC(=O)N1CCC2(CC1)CC(C(=O)Nc1ccccc1)=NO2 [Example 85, 8-butyryl-1-oxa-2,8-diaza-spiro[4,5]dec-2-ene-3-carboxylic acid phenylamide]",,41
"O=C(NC1CCCCCCC1)C1=NOC2(CCN(S(=O)(=O)c3ccc(OC(F)(F)F)cc3)CC2)C1 [Example 86, 8-(4-trifluoromethoxy-benzenesulphonyl)-1-oxa-2,8-diaza-spiro[4,5]dec-2-ene-3-carboxylic acid cyclooctylamide]",,46
"COCCOCC(=O)N1CCC2(CC1)CC(C(=O)NCc1ccccc1)=NO2 [Example 87, 8-[2-(2-methoxy-ethoxy)-acetyl]-1-oxa-2,8-diaza-spiro[4,5]dec-2-ene-3-carboxylic acid benzylamide]",,40
"Cc1cc(C(=O)N2CCC3(CC2)CC(C(=O)NCC(C)C)=NO3)ccc1Br [Example 88, 8-(4-bromo-3-methyl-benzoyl)-1-oxa-2,8-diaza-spiro[4,5]dec-2-ene-3-carboxylic acid isobutyl-amide]",,46
"CCOC(=O)N1CCC(NC(=O)C2=NOC3(CCN(S(=O)(=O)c4cc([N+](=O)[O-])ccc4C)CC3)C2)CC1 [Example 90, 4-{[8-(2-methyl-5-nitro-benzenesulphonyl)-1-oxa-2,8-diaza-spiro[4,5]dec-2-ene-3-carbonyl]-amino}-piperidine-1-carboxylic acid ethyl ester]",,48

SMILES,"5HT-uptake, 10 μM, % inhibition [%]",inhibition at 10 µM [%]
"O=C(C1=NOC2(CCN(S(=O)(=O)c3ccc(Cl)s3)CC2)C1)N1CCN(c2ccc(F)cc2)CC1 [Example 91, [8-(5-chloro-thiophene-2-sulphonyl)-1-oxa-2,8-diaza-spiro[4,5]dec-2-en-3-yl]-[4-(4-fluorophenyl)-piperazin-1-yl]-methanone]",,45
"CN(Cc1cccnc1)C(=O)C1=NOC2(CCN(S(=O)(=O)c3cc(Cl)ccc3Cl)CC2)C1 [Example 92, 8-(2,5-dichloro-benzenesulphonyl)-1-oxa-2,8-diaza-spiro[4,5]dec-2-ene-3-carboxylic acid methyl-pyridin-3-ylmethyl-amide]",,51
O=C(Cc1ccc(F)c(F)c1)N1CCN(C(=O)C2=NOC3(CCN(S(=O)(=O)c4cccc(C(F)(F)F)c4)CC3)C2)CC1 [Example 93],42,
"O=C(NCC1CC1)C1=NOC2(CCN(S(=O)(=O)c3cccc(C(F)(F)F)c3)CC2)C1 [Example 94, 8-(3-trifluoromethyl-benzenesulphonyl)-1-oxa-2,8-diaza-spiro[4,5]dec-2-ene-3 carboxylic acid cyclopropylmethyl-amide]",,57
CCOC(=O)CCNC(=O)C1=NOC2(CCN(S(=O)(=O)c3cc([N+](=O)[O-])ccc3C)CC2)C1 [Example 95],54,
"N#CCCN(Cc1cccnc1)C(=O)C1=NOC2(CCN(S(=O)(=O)c3cc(Cl)ccc3Cl)CC2)C1 [Example 99, 8-(2,5-dichloro-benzenesulphonyl)-1-oxa-2,8-diaza-spiro[4,5]dec-2-ene-3-carboxylic acid (2-cyano-ethyl)-pyridin-3-ylmethyl-amide]",,44
N#CCCN(CC1CCCO1)C(=O)C1=NOC2(CCN(S(=O)(=O)c3cc(Cl)ccc3Cl)CC2)C1 (stereo not drawn) [Example 100],43,
"COc1ccc(S(=O)(=O)N2CCC3(CC2)CC(C(=O)NC(CC(C)C)C(=O)OC(C)(C)C)=NO3)cc1 (stereo not drawn) [Example 147, 2-{[8-(4-methoxy-benzenesulphonyl)-1-oxa-2,8-diaza-spiro[4,5]dec-2-ene-3-carbonyl]-amino}-4-methyl-pentanoic acid tert-butyl ester]",,67
CCOC(=O)CCNC(=O)C1=NOC2(CCN(C(=O)c3c(Cl)ccc(C)c3F)CC2)C1 [Example 148],47,
"O=C(NCc1cccs1)C1=NOC2(CCN(C(=O)c3ccccc3Cl)CC2)C1 [Example 152, 8-(2-chloro-benzoyl)-1-oxa-2,8-diaza-spiro[4,5]dec-2-ene-3-carboxylic acid (thiophen-2-ylmethyl)-amide]",,41
CCSCCNC(=O)C1=NOC2(CCN(C(=O)c3ccc(Br)cc3)CC2)C1 [Example 154],48,
"O=C(NCC1CC1)C1=NOC2(CCN(C(=O)c3cccc(Cl)c3Cl)CC2)C1 [Example 157, 8-(2,3-dichloro-benzoyl)-1-oxa-2,8-diaza-spiro[4,5]dec-2-ene-3-carboxylic acid cyclopropylmethyl-amide]",,52
"CCCCCC(=O)N1CCC2(CC1)CC(C(=O)NCC1CC1)=NO2 [Example 158, 8-hexanoyl-1-oxa-2,8-diaza-spiro[4,5]dec-2-ene-3-carboxylic acid cyclopropylmethyl-amide]",,42
"Cc1ccc(C(=O)N2CCC3(CC2)CC(C(=O)NCC2CC2)=NO3)c(F)c1F [Example 159, 8-(2,3-difluoro-4-methyl-benzoyl)-1-oxa-2,8-diaza-spiro[4,5]dec-2-ene-3-carboxylic acid cyclopropylmethyl-amide]",,40
COc1ccc(OC)c(CN(Cc2ccco2)C(=O)C2=NOC3(CCN(S(=O)(=O)c4ccc(F)cc4)CC3)C2)c1 [Example 160],50,
CCSCCNC(=O)C1=NOC2(CCN(S(=O)(=O)N(C)C)CC2)C1 [Example 161],44,
"COc1cccc(CNC(=O)C2=NOC3(CCN(S(=O)(=O)c4ccc(OC(F)(F)F)cc4)CC3)C2)c1 [Example 162, 8-(4-trifluoromethoxy-benzenesulphonyl)-1-oxa-2,8-diaza-spiro[4,5]dec-2-ene-3-carboxylic acid 3-methoxy-benzylamide]",,40

# Molecular target: T2, NA transporter (Rattus norvegicus, UniProt Q9WTR4)
# T2 construct: synaptosomes from rat brain regions were freshly isolated; from tissue; host or cells: P2 synaptosome fraction from hypothalamus of male rat brain
# Experiment: Noradrenalin uptake inhibition (NA-uptake) in synaptosomes
# Format: biochemical
# Details: rat hypothalamus synaptosomes
# Excerpt: Tests on Noradrenalin Uptake Inhibition (NA-Uptake Inhibition)
# In order to be able to carry out these in vitro studies, synaptosomes from rat brain regions were freshly isolated.
# T2 sequence (Q9WTR4 1-597): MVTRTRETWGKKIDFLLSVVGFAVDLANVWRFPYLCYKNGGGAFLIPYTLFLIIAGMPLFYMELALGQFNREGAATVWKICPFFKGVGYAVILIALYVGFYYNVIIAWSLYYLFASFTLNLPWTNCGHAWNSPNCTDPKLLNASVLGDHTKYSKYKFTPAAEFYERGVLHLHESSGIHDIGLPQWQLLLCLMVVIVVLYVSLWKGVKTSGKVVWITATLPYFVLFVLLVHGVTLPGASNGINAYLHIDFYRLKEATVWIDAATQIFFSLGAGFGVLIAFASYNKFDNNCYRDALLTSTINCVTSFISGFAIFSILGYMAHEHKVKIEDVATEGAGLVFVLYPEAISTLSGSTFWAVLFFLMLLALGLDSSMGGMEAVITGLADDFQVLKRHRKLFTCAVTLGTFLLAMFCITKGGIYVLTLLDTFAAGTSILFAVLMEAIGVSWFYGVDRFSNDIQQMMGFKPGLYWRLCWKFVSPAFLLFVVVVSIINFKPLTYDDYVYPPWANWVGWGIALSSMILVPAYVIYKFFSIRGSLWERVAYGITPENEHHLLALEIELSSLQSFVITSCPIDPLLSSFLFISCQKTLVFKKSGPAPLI
SMILES,"NA-uptake, 10 μM, % inhibition [%]",inhibition at 10 µM [%]
"O=C(C1=NOC2(CCN(S(=O)(=O)c3cccs3)CC2)C1)N1CCN(C2CCCCCC2)CC1 [Example 3, (4-cycloheptyl-piperazin-l-yl)-[8-(thiophene-2-sulphonyl)-1-oxa-2,8-diaza-spiro [4,5]dec-2-en-3-yl]-methanone]",59,
"O=C(C1=NOC2(CCN(S(=O)(=O)c3ccc(Cl)s3)CC2)C1)N1CCN(c2ccccc2)CC1 [Example 4, [8-(5-chloro-thiophene-2-sulphonyl)-1-oxa-2,8-diaza-spiro[4,5]dec-2-en-3-yl]-(4-phenyl-piperazin-1-yl)-methanone]",,45
"O=C(NC1CCCC1)C1=NOC2(CCN(C(=O)c3ccc([N+](=O)[O-])cc3Cl)CC2)C1 [Example 5, 8-(2-chloro-4-nitro-benzoyl)-1-oxa-2,8-diaza-spiro[4,5]dec-2-ene-3-carboxylic acid cyclopentylamide]",,53
Cc1ccc(S(=O)(=O)N2CCC3(CC2)CC(C(=O)NCCc2ccc(Cl)c(Cl)c2)=NO3)cc1 [Example 9],77,
"O=C(C1=NOC2(CCN(S(=O)(=O)c3cccs3)CC2)C1)N1CCN(CCCc2ccccc2)CC1 [Example 14, [4-(3-phenyl-propyl)-piperazin-l-yl]-[8-(thiophene-2-sulphonyl)-1-oxa-2,8-diaza-spiro[4,5]dec-2-en-3-yl]-methanone]",70,
"CC1CCCCN1CCCNC(=O)C1=NOC2(CCN(S(=O)(=O)c3cc(Cl)ccc3Cl)CC2)C1 (stereo not drawn) [Example 15, 8-(2,5-dichloro-benzenesulphonyl)-1-oxa-2,8-diaza-spiro[4,5]dec-2-ene-3-carboxylic acid[3-(2-methyl-piperidin-1-yl)-propyl]-amide]",41,
"Cc1cccc(N2CCN(C(=O)C3=NOC4(CCN(S(=O)(=O)c5cccs5)CC4)C3)CC2C)c1 (stereo not drawn) [Example 31, (3-methyl-4-m-tolyl-piperazin-l-yl)-[8-(thiophene-2-sulphonyl)-1-oxa-2,8-diaza-spiro[4,5]dec-2-en-3-yl]-methanone]",66,
